22 compounds from US9957251B2 (Takeda Pharmaceutical Company Limited, priority 2014, dated 2018) can be followed below.

One experiment concerns the target T1, CDK8/CycC (Homo sapiens, UniProt P49336).
T1 construct: purchased Carna Biosciences
In words: CDK8 inhibitory activity (TR-FRET, Kinase Tracer-236 displacement). As to conditions: 1 μM of the test compound; read-out: Percent inhibition of CDK8 activity (%). It counts as binding. In a few lines: (§1)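 Binding assay measuring displacement of Kinase Tracer-236 (60 nM in the added mix) by compound, using Eu-cryptate anti-GST antibody with CDK8/CycC (84 ng/mL) or CDC2L6/CycC (87 ng/mL) solutions. After 1 h at room temperature, TR-FRET read at 615 and 665 nm (excitation 320 nm).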
A general note: TR-FRET usually uses a lanthanide donor and a delayed reading to cut background.

The next experiment deals with T2, CDK19 (CDC2L6/CycC) (Homo sapiens, UniProt Q9BWU1).
T2 construct: purchased Carna Biosciences
Kind of experiment: CDK19 inhibitory activity (TR-FRET, Kinase Tracer-236 displacement). It counts as binding. The conditions noted are these: 1 μM of the test compound; read-out: Percent inhibition of CDK19 activity (%). The procedure, abridged: as §1

For experiment [1], the system named is human multiple myeloma RPMI8226 cells. Kind of experiment: Inhibitory activity against human multiple myeloma RPMI8226 cell growth (CellTiter-Glo). It counts as cell-based. As to conditions: Homo sapiens, RPMI-8226, 192 h, 1 μM of the test compound, cultured for 8 days; read-out: Percent inhibition of RPMI8226 cell growth (%). The procedure, abridged:
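RPMI8226 cells (300/well) cultured 1 day at 37 °C, 5% CO2, then given compound at 1 μM for 8 days. ATP luminescence (CellTiter-Glo) read; percent inhibition relative to 0.1% DMSO wells.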
(In general: ATP-based viability assays read luminescence as a measure of living cells.)

T1 sequence (P49336 whole entry): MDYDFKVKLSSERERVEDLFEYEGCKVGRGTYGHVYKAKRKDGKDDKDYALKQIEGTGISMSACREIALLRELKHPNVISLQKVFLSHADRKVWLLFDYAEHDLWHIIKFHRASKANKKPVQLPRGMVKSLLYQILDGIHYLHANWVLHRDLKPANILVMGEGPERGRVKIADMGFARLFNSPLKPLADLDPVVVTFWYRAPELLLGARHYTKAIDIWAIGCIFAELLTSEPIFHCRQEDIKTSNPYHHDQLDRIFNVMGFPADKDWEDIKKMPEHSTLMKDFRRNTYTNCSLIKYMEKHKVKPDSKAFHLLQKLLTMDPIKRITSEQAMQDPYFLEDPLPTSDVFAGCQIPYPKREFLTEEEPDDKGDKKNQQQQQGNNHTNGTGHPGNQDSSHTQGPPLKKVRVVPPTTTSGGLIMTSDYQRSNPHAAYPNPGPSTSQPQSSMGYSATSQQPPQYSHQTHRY
T1 sequence (P24863 whole entry partner): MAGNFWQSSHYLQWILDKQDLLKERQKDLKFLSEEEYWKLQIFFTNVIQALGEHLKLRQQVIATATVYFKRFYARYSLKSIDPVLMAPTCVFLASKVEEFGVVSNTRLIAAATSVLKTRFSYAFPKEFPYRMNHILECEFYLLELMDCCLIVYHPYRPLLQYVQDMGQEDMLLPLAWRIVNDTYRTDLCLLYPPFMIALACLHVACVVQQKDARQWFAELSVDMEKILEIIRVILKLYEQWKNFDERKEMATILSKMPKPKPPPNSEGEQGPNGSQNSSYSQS
T2 sequence (Q9BWU1 whole entry): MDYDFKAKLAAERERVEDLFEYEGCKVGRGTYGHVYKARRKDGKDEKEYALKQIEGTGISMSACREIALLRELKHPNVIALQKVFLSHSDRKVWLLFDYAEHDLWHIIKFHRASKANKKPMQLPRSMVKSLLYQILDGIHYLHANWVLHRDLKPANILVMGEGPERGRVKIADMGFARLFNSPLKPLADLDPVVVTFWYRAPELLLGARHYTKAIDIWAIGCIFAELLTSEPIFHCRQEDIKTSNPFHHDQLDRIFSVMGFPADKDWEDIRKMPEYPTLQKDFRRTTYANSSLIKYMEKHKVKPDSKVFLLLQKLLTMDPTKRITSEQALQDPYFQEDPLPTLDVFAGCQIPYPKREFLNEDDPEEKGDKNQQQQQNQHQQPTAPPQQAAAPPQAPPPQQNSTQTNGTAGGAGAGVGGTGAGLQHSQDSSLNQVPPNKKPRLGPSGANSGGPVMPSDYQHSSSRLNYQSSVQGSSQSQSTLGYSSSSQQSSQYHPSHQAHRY
T2 sequence (P24863 whole entry partner): as the sequence (P24863 whole entry partner) above

As to `Cn1cnc2ccc(-c3ccncc3/C=C/C(=O)Nc3ccc4c(ccn4CC(F)(F)F)c3)cc21` [Example 298, (2E)-3-(4-(1-methyl-1H-benzimidazol-6-yl)pyridin-3-yl)-N-(1-(2,2,2-trifluoroethyl)-1H-indol-5-yl)acrylamide], the inhibition at 1 µM on CDK8/CycC came out at 85%; at CDK19 (CDC2L6/CycC), 84%; in experiment [1] it was 63%.

`O=C(/C=C/c1cnccc1-c1cnn(C2CC2)c1)Nc1ccc2c(c1)CN(CC(F)(F)C(F)(F)F)CC2` [Example 300, (2E)-3-(4-(1-cyclopropyl-1H-pyrazol-4-yl)pyridin-3-yl)-N-(2-(2,2,3,3,3-pentafluoropropyl)-1,2,3,4-tetrahydroisoquinolin-7-yl)acrylamide]: the figures for the inhibition at 1 µM (at CDK8/CycC; on CDK19 (CDC2L6/CycC); in experiment [1]) were 97%, 94% and 57%, respectively.

As to `O=C(/C=C/c1cnccc1-c1cnn(C2CC2)c1)Nc1ccc(CN2CC3(COC3)C2)cc1` [Example 308, (2E)-3-(4-(1-cyclopropyl-1H-pyrazol-4-yl)pyridin-3-yl)-N-(4-(2-oxa-6-azaspiro [3.3]hept-6-ylmethyl)phenyl)acrylamide], the inhibition at 1 µM is 110% at CDK8/CycC, 98% on CDK19 (CDC2L6/CycC) and 56% in experiment [1].

Turning to `Cc1noc(C)c1-c1ccc(NC(=O)/C=C/c2cnccc2-c2cnn(C3CC3)c2)c(F)c1` [Example 311, (2E)-3-(4-(1-cyclopropyl-1H-pyrazol-4-yl)pyridin-3-yl)-N-(4-(3,5-dimethyl-1,2-oxazol-4-yl)-2-fluorophenyl)acrylamide], the inhibition at 1 µM is 103% on CDK8/CycC, 98% on CDK19 (CDC2L6/CycC) and 58% in experiment [1].

As to `O=C(/C=C/c1cnccc1-c1cnn(C2CC2)c1)Nc1ccc2c(c1)CCN(CC(F)(F)F)C2` [Example 316, (2E)-3-(4-(1-Cyclopropyl-1H-pyrazol-4-yl)pyridin-3-yl)-N-(2-(2,2,2-trifluoroethyl)-1,2,3,4-tetrahydroisoquinolin-6-yl)acrylamide], the inhibition at 1 µM at CDK8/CycC came out at 103%; on CDK19 (CDC2L6/CycC) it was 98%; in experiment [1], 49%.

In the case of `O=C(/C=C/c1cnccc1-c1cnn(C2CC2)c1)Nc1ccc2c(c1)CN(CC(F)(F)F)C2` [Example 319, (2E)-3-(4-(1-Cyclopropyl-1H-pyrazol-4-yl)pyridin-3-yl)-N-(2-(2,2,2-trifluoroethyl)-2,3-dihydro-1H-isoindol-5-yl)acrylamide], the inhibition at 1 µM at CDK8/CycC is 103%; at CDK19 (CDC2L6/CycC) it was 101%; in experiment [1], 47%.

`COC1CN(Cc2ccc(NC(=O)/C=C/c3cnccc3-c3cnn(C4CC4)c3)cc2)C1` [Example 321, (2E)-3-(4-(1-cyclopropyl-1H-pyrazol-4-yl)pyridin-3-yl)-N-(4-((3-methoxyazetidin-1-yl)methyl)phenyl)acrylamide]: the values for the inhibition at 1 µM (on CDK8/CycC; on CDK19 (CDC2L6/CycC); in experiment [1]) were 101%, 99% and 59%, respectively.

Take `CC1CN(Cc2ccc(NC(=O)/C=C/c3cnccc3-c3cnn(C4CC4)c3)cc2)C1` [Example 322, (2E)-3-(4-(1-cyclopropyl-1H-pyrazol-4-yl)pyridin-3-yl)-N-(4-((3-methylazetidin-1-yl)methyl)phenyl)acrylamide]: the inhibition at 1 µM on CDK8/CycC was 102%; on CDK19 (CDC2L6/CycC) it was 97%; in experiment [1], 55%.

As for `Cn1cc(-c2c(F)cncc2/C=C/C(=O)Nc2ccc3c(c2)CN(CC(F)(F)F)C3)cn1` [Example 327, (2E)-3-(5-Fluoro-4-(1-methyl-1H-pyrazol-4-yl)pyridin-3-yl)-N-(2-(2,2,2-trifluoroethyl)-2,3-dihydro-1H-isoindol-5-yl)acrylamide], the inhibition at 1 µM on CDK8/CycC came to 106%; on CDK19 (CDC2L6/CycC), 104%; in experiment [1], 56%.

`O=C(/C=C/c1cnccc1-c1cnn(C2CC2)c1)Nc1ccc(COCC(F)(F)F)cc1F` [Example 330, (2E)-3-(4-(1-Cyclopropyl-1H-pyrazol-4-yl)pyridin-3-yl)-N-(2-fluoro-4-((2,2,2-trifluoroethoxy)methyl)phenyl)acrylamide]: the inhibition at 1 µM at CDK8/CycC was 101%; on CDK19 (CDC2L6/CycC) it was 96%; in experiment [1], 53%.

For `O=C(/C=C/c1cncc(F)c1-c1cnn(C2CC2)c1)Nc1ccc2c(c1)OCCO2` [Example 331, (2E)-3-(4-(1-cyclopropyl-1H-pyrazol-4-yl)-5-fluoropyridin-3-yl)-N-(2,3-dihydro-1,4-benzodioxin-6-yl)acrylamide], the inhibition at 1 µM was determined as 103% at CDK8/CycC, 98% at CDK19 (CDC2L6/CycC) and 65% in experiment [1].

As for `CC(C)(O)Cc1ccc(NC(=O)/C=C/c2cncc(F)c2-c2cnn(C3CC3)c2)c(F)c1` [Example 332, (2E)-3-(4-(1-Cyclopropyl-1H-pyrazol-4-yl)-5-fluoropyridin-3-yl)-N-(2-fluoro-4-(2-hydroxy-2-methylpropyl)phenyl)acrylamide], the inhibition at 1 µM at CDK8/CycC is 102%; at CDK19 (CDC2L6/CycC), 99%; in experiment [1] it was 60%.

For the compound `O=C(/C=C/c1cncc(F)c1-c1cnn(C2CC2)c1)Nc1ccc(CN2CC3CC(C2)O3)cc1` [Example 336, (2E)-3-(4-(1-Cyclopropyl-1H-pyrazol-4-yl)-5-fluoropyridin-3-yl)-N-(4-(6-oxa-3-azabicyclo[3.1.1]hept-3-ylmethyl)phenyl)acrylamide], the inhibition at 1 µM on CDK8/CycC came out at 102%; at CDK19 (CDC2L6/CycC), 101%; in experiment [1], 59%.

Consider `O=C(/C=C/c1cnccc1-c1cnn(C2CC2)c1)Nc1ccc2c(c1)CN(CC(F)(F)CO)C2` [Example 340, (2E)-3-(4-(1-cyclopropyl-1H-pyrazol-4-yl)pyridin-3-yl)-N-(2-(2,2-difluoro-3-hydroxypropyl)-2,3-dihydro-1H-isoindol-5-yl)acrylamide], for which the inhibition at 1 µM was 102% at CDK8/CycC, 96% on CDK19 (CDC2L6/CycC) and 65% in experiment [1].

As to `Cn1cc(-c2ccncc2/C=C/C(=O)Nc2ccc3c(c2)CN(CC(F)F)C3)cn1` [Example 342, (2E)-N-(2-(2,2-difluoroethyl)-2,3-dihydro-1H-isoindol-5-yl)-3-(4-(1-methyl-1H-pyrazol-4-yl)pyridin-3-yl)acrylamide], the results for the inhibition at 1 µM (on CDK8/CycC; on CDK19 (CDC2L6/CycC); in experiment [1]) were 105%, 94% and 63%, respectively.

For the compound `COC1CN(Cc2ccc(NC(=O)/C=C/c3cncc(F)c3-c3cnn(C4CC4)c3)c(F)c2)C1` [Example 343, (2E)-3-(4-(1-Cyclopropyl-1H-pyrazol-4-yl)-5-fluoropyridin-3-yl)-N-(2-fluoro-4-((3-methoxyazetidin-1-yl)methyl)phenyl)acrylamide], the inhibition at 1 µM at CDK8/CycC amounted to 103%; at CDK19 (CDC2L6/CycC), 96%; in experiment [1], 63%.

In the case of `COC1CN(Cc2ccc(NC(=O)/C=C/c3cncc(F)c3-c3cnn(C4CC4)c3)cc2)C1` [Example 345, (2E)-3-(4-(1-Cyclopropyl-1H-pyrazol-4-yl)-5-fluoropyridin-3-yl)-N-(4-((3-methoxyazetidin-1-yl)methyl)phenyl)acrylamide], the inhibition at 1 µM on CDK8/CycC came out at 101%; on CDK19 (CDC2L6/CycC), 100%; in experiment [1] it was 63%.

For `CC(C)(F)Cc1ccc(NC(=O)/C=C/c2cncc(F)c2-c2cnn(C3CC3)c2)cc1` [Example 348, (2E)-3-(4-(1-Cyclopropyl-1H-pyrazol-4-yl)-5-fluoropyridin-3-yl)-N-(4-(2-fluoro-2-methylpropyl)phenyl)acrylamide], the inhibition at 1 µM at CDK8/CycC stood at 99%; at CDK19 (CDC2L6/CycC) it was 101%; in experiment [1], 62%.

With `Cn1cc(-c2c(F)cncc2/C=C/C(=O)Nc2ccc3c(c2)CN(CC(C)(F)F)C3)cn1` [Example 351, (2E)-N-(2-(2,2-difluoropropyl)-2,3-dihydro-1H-isoindol-5-yl)-3-(5-fluoro-4-(1-methyl-1H-pyrazol-4-yl)pyridin-3-yl)acrylamide], the inhibition at 1 µM on CDK8/CycC was 106%; on CDK19 (CDC2L6/CycC), 100%; in experiment [1], 63%.

As for `Cn1cnc2ccc(-c3c(F)cncc3/C=C/C(=O)Nc3ccc4c(c3)CN(CC(F)(F)F)C4)cc21` [Example 357, (2E)-3-(5-fluoro-4-(1-methyl-1H-benzimidazol-6-yl)pyridin-3-yl)-N-(2-(2,2,2-trifluoroethyl)-2,3-dihydro-1H-isoindol-5-yl)acrylamide], the inhibition at 1 µM was determined as 101% at CDK8/CycC, 96% on CDK19 (CDC2L6/CycC) and 69% in experiment [1].

In the case of `Cn1cnc2ccc(-c3c(F)cncc3/C=C/C(=O)Nc3ccc(CN4CC(F)(F)C4)cc3)cc21` [Example 358, (2E)-N-(4-((3,3-Difluoroazetidin-1-yl)methyl)phenyl)-3-(5-fluoro-4-(1-methyl-1H-benzimidazol-6-yl)pyridin-3-yl)acrylamide], the inhibition at 1 µM stood at 87% on CDK8/CycC, 101% at CDK19 (CDC2L6/CycC) and 67% in experiment [1].

For `Cn1cc(-c2ccncc2/C=C/C(=O)Nc2ccc(N3CC(F)(F)C3)cc2)cn1` [Example 363, (2E)-N-(4-(3,3-difluoroazetidin-1-yl)phenyl)-3-(4-(1-methyl-1H-pyrazol-4-yl)pyridin-3-yl)acrylamide], the inhibition at 1 µM on CDK8/CycC was determined as 105%; at CDK19 (CDC2L6/CycC), 99%; in experiment [1], 50%.

As a reminder, the inhibition is the relative decrease from the control value, in per cent.
